Columns and labels:
ABUTH (Velvetleaf) [1] = assay: Postemergence herbicidal evaluation; format: in vivo, Abutilon theophrasti; settings: postemergence
Procedure, shortened: (§1)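 First, seedlings were raised for around two weeks. Next, test material in 50/50 acetone/water containing 0.5% TWEEN 20 was sprayed through a nozzle at 40 psi, equivalent to about 0.0156–0.500 kg/ha. Finally, after 4–5 weeks in the greenhouse, plants were rated 0–9.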

[2] = system: CHEAL (Lambsquarters, Common); assay: Postemergence herbicidal evaluation; format: in vivo, Chenopodium album; settings: postemergence
Procedure, shortened: as §1

[3] = system: IPOHE (Morningglory, Ivyleaf); assay: Postemergence herbicidal evaluation; format: in vivo, Ipomoea hederacea; settings: postemergence
Procedure, shortened: as §1

ECHCG (Barnyardgrass) [4] = assay: Postemergence herbicidal evaluation; format: in vivo, Echinochloa crus-galli; settings: postemergence
Procedure, shortened: as §1

SETVI (Foxtail, Green) = assay: Postemergence herbicidal evaluation; format: in vivo, Setaria viridis; settings: postemergence
Procedure, shortened: as §1

ORYSAT (Rice, Tebonnet) = assay: Postemergence herbicidal evaluation; format: in vivo, Oryza sativa, (L.) Tebonnet; settings: postemergence
Procedure, shortened: as §1

ZEAMX (Corn, Field) [5] = assay: Postemergence herbicidal evaluation; format: in vivo, Zea mays; settings: postemergence
Procedure, shortened: as §1

ABUTH (Velvetleaf) [6] = assay: Preemergence herbicidal evaluation; format: in vivo, Abutilon theophrasti; settings: rated 4-5 weeks after treatment
Procedure, shortened: (§2)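 In this greenhouse assay, monocot and dicot seeds are planted in soil and treated prior to emergence with an aqueous acetone spray (about 0.0156-0.500 kg/ha). Plants are assessed visually against control on a 0-9 scale after 4-5 weeks.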

CASOB (Sicklepod) = assay: Preemergence herbicidal evaluation; format: in vivo, Cassia obtusifolia; settings: rated 4-5 weeks after treatment
Procedure, shortened: as §2

[7] = system: CHEAL (Lambsquarters, Common); assay: Preemergence herbicidal evaluation; format: in vivo, Chenopodium album; settings: rated 4-5 weeks after treatment
Procedure, shortened: as §2

[8] = system: IPOHE (Morningglory, Ivyleaf); assay: Preemergence herbicidal evaluation; format: in vivo, Ipomoea hederacea; settings: rated 4-5 weeks after treatment
Procedure, shortened: as §2

ECHCG (Barnyardgrass) [9] = assay: Preemergence herbicidal evaluation; format: in vivo, Echinochloa crus-galli; settings: rated 4-5 weeks after treatment
Procedure, shortened: as §2

[10] = system: GLXMAW (Soybean, Williams); assay: Preemergence herbicidal evaluation; format: in vivo, Glycine max, (L.) Merr. cv Williams; settings: rated 4-5 weeks after treatment
Procedure, shortened: as §2

[11] = system: TRZAWR (Wheat, Winter, cv Riband); assay: Preemergence herbicidal evaluation; format: in vivo, Triticum aestivum; settings: rated 4-5 weeks after treatment
Procedure, shortened: as §2

ZEAMX (Corn, Field) [12] = assay: Preemergence herbicidal evaluation; format: in vivo, Zea mays; settings: rated 4-5 weeks after treatment
Procedure, shortened: as §2

CYPIR (Rice Flatsedge) = assay: Postemergence weed control under flooded paddy conditions; format: in vivo, Cyperus iria; settings: postemergence weeds, 3-4 weeks after treatment
Procedure, shortened: (§3)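 With weeds 3 to 5 cm tall and rice at the 1.5 to 2.5 leaf stage, containers were flooded and water held 1.5 to 3 cm above soil. Compounds in 50/50 v/v aqueous/acetone went into the flood water at about 0.0313 to 0.500 kg/ha a.i. Effects were visually rated 0–9 against controls after three to four weeks in the greenhouse.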

CYPSE (Flatsedge) = assay: as above; format: in vivo, Cyperus serotinus; settings: postemergence weeds, 3-4 weeks after treatment
Procedure, shortened: as §3

Compound: CCOC(=O)CN1C(=O)C2(CC2)SC1=Nc1cc(-n2c(=O)cc(C(F)(F)F)n(C)c2=O)c(F)cc1Cl [Compound 15, Ethyl 5-{{2-chloro-5-[3,6-dihydro-3-methyl-2,6-dioxo-4-(trifluoromethyl)-1(2H)-pyrimidinyl]-4-fluorophenyl}imino}-7-oxo-4-thia-6-azaspiro[2.4]-heptane-6-acetate]
- ABUTH herbicidal rating (ABUTH (Velvetleaf) [1]; rate 0.0156 kg/ha): 9.0
- ABUTH herbicidal rating (ABUTH (Velvetleaf) [1]; rate 0.0313 kg/ha): 9.0
- ABUTH herbicidal rating (ABUTH (Velvetleaf) [1]; rate 0.0625 kg/ha): 9.0
- ABUTH herbicidal rating (ABUTH (Velvetleaf) [1]; rate 0.1250 kg/ha): 9.0
- CHEAL herbicidal rating ([2]; rate 0.0156 kg/ha): 3.0
- CHEAL herbicidal rating ([2]; rate 0.0313 kg/ha): 3.0
- CHEAL herbicidal rating ([2]; rate 0.0625 kg/ha): 9.0
- CHEAL herbicidal rating ([2]; rate 0.1250 kg/ha): 9.0
- IPOHE herbicidal rating ([3]; rate 0.0156 kg/ha): 6.0
- IPOHE herbicidal rating ([3]; rate 0.0313 kg/ha): 9.0
- IPOHE herbicidal rating ([3]; rate 0.0625 kg/ha): 9.0
- IPOHE herbicidal rating ([3]; rate 0.1250 kg/ha): 9.0
- ECHCG herbicidal rating (ECHCG (Barnyardgrass) [4]; rate 0.0156 kg/ha): 0.0
- ECHCG herbicidal rating (ECHCG (Barnyardgrass) [4]; rate 0.0313 kg/ha): 0.0
- ECHCG herbicidal rating (ECHCG (Barnyardgrass) [4]; rate 0.0625 kg/ha): 3.0
- ECHCG herbicidal rating (ECHCG (Barnyardgrass) [4]; rate 0.1250 kg/ha): 9.0
- SETVI herbicidal rating (SETVI (Foxtail, Green); rate 0.0156 kg/ha): 0.0
- SETVI herbicidal rating (SETVI (Foxtail, Green); rate 0.0313 kg/ha): 0.0
- SETVI herbicidal rating (SETVI (Foxtail, Green); rate 0.0625 kg/ha): 2.0
- SETVI herbicidal rating (SETVI (Foxtail, Green); rate 0.1250 kg/ha): 7.0
- ORYSAT herbicidal rating (ORYSAT (Rice, Tebonnet); rate 0.0156 kg/ha): 4.5
- ORYSAT herbicidal rating (ORYSAT (Rice, Tebonnet); rate 0.0313 kg/ha): 5.0
- ORYSAT herbicidal rating (ORYSAT (Rice, Tebonnet); rate 0.0625 kg/ha): 6.5
- ORYSAT herbicidal rating (ORYSAT (Rice, Tebonnet); rate 0.1250 kg/ha): 6.5
- ZEAMX herbicidal rating (ZEAMX (Corn, Field) [5]; rate 0.0156 kg/ha): 5.0
- ZEAMX herbicidal rating (ZEAMX (Corn, Field) [5]; rate 0.0313 kg/ha): 6.0
- ZEAMX herbicidal rating (ZEAMX (Corn, Field) [5]; rate 0.0625 kg/ha): 7.0
- ZEAMX herbicidal rating (ZEAMX (Corn, Field) [5]; rate 0.1250 kg/ha): 7.5
- ABUTH preemergence herbicidal rating (ABUTH (Velvetleaf) [6]; rate 0.0156 kg/ha): 1.5
- ABUTH preemergence herbicidal rating (ABUTH (Velvetleaf) [6]; rate 0.0313 kg/ha): 3.0
- ABUTH preemergence herbicidal rating (ABUTH (Velvetleaf) [6]; rate 0.0625 kg/ha): 9.0
- ABUTH preemergence herbicidal rating (ABUTH (Velvetleaf) [6]; rate 0.1250 kg/ha): 9.0
- ABUTH preemergence herbicidal rating (ABUTH (Velvetleaf) [6]; rate 0.2500 kg/ha): 9.0
- CASOB preemergence herbicidal rating (CASOB (Sicklepod); rate 0.0156 kg/ha): 0.0
- CASOB preemergence herbicidal rating (CASOB (Sicklepod); rate 0.0313 kg/ha): 0.5
- CASOB preemergence herbicidal rating (CASOB (Sicklepod); rate 0.0625 kg/ha): 0.5
- CASOB preemergence herbicidal rating (CASOB (Sicklepod); rate 0.1250 kg/ha): 2.0
- CASOB preemergence herbicidal rating (CASOB (Sicklepod); rate 0.2500 kg/ha): 6.5
- CHEAL preemergence herbicidal rating ([7]; rate 0.0156 kg/ha): 6.5
- CHEAL preemergence herbicidal rating ([7]; rate 0.0313 kg/ha): 9.0
- CHEAL preemergence herbicidal rating ([7]; rate 0.0625 kg/ha): 9.0
- CHEAL preemergence herbicidal rating ([7]; rate 0.1250 kg/ha): 9.0
- CHEAL preemergence herbicidal rating ([7]; rate 0.2500 kg/ha): 9.0
- IPOHE preemergence herbicidal rating ([8]; rate 0.0156 kg/ha): 1.0
- IPOHE preemergence herbicidal rating ([8]; rate 0.0313 kg/ha): 1.5
- IPOHE preemergence herbicidal rating ([8]; rate 0.0625 kg/ha): 1.5
- IPOHE preemergence herbicidal rating ([8]; rate 0.1250 kg/ha): 7.0
- IPOHE preemergence herbicidal rating ([8]; rate 0.2500 kg/ha): 9.0
- ECHCG preemergence herbicidal rating (ECHCG (Barnyardgrass) [9]; rate 0.0156 kg/ha): 0.0
- ECHCG preemergence herbicidal rating (ECHCG (Barnyardgrass) [9]; rate 0.0313 kg/ha): 0.5
- ECHCG preemergence herbicidal rating (ECHCG (Barnyardgrass) [9]; rate 0.0625 kg/ha): 1.0
- ECHCG preemergence herbicidal rating (ECHCG (Barnyardgrass) [9]; rate 0.1250 kg/ha): 2.0
- ECHCG preemergence herbicidal rating (ECHCG (Barnyardgrass) [9]; rate 0.2500 kg/ha): 4.5
- GLXMAW preemergence herbicidal rating ([10]; rate 0.0156 kg/ha): 0.5
- GLXMAW preemergence herbicidal rating ([10]; rate 0.0313 kg/ha): 0.5
- GLXMAW preemergence herbicidal rating ([10]; rate 0.0625 kg/ha): 1.0
- GLXMAW preemergence herbicidal rating ([10]; rate 0.1250 kg/ha): 2.5
- GLXMAW preemergence herbicidal rating ([10]; rate 0.2500 kg/ha): 5.5
- TRZAWR preemergence herbicidal rating ([11]; rate 0.0156 kg/ha): 0.0
- TRZAWR preemergence herbicidal rating ([11]; rate 0.0313 kg/ha): 0.0
- TRZAWR preemergence herbicidal rating ([11]; rate 0.0625 kg/ha): 0.0
- TRZAWR preemergence herbicidal rating ([11]; rate 0.1250 kg/ha): 5.0
- TRZAWR preemergence herbicidal rating ([11]; rate 0.2500 kg/ha): 5.0
- ZEAMX preemergence herbicidal rating (ZEAMX (Corn, Field) [12]; rate 0.0156 kg/ha): 1.0
- ZEAMX preemergence herbicidal rating (ZEAMX (Corn, Field) [12]; rate 0.0313 kg/ha): 1.0
- ZEAMX preemergence herbicidal rating (ZEAMX (Corn, Field) [12]; rate 0.0625 kg/ha): 2.5
- ZEAMX preemergence herbicidal rating (ZEAMX (Corn, Field) [12]; rate 0.1250 kg/ha): 3.0
- ZEAMX preemergence herbicidal rating (ZEAMX (Corn, Field) [12]; rate 0.2500 kg/ha): 5.0
- Herbicidal rating CYPIR (CYPIR (Rice Flatsedge); rate 0.0313 kg/ha): 2.0
- Herbicidal rating CYPIR (CYPIR (Rice Flatsedge); rate 0.0625 kg/ha): 2.0
- Herbicidal rating CYPIR (CYPIR (Rice Flatsedge); rate 0.1250 kg/ha): 6.0
- Herbicidal rating CYPIR (CYPIR (Rice Flatsedge); rate 0.2500 kg/ha): 7.0
- Herbicidal rating CYPSE (CYPSE (Flatsedge); rate 0.0313 kg/ha): 0.0
- Herbicidal rating CYPSE (CYPSE (Flatsedge); rate 0.0625 kg/ha): 0.0
- Herbicidal rating CYPSE (CYPSE (Flatsedge); rate 0.1250 kg/ha): 0.0
- Herbicidal rating CYPSE (CYPSE (Flatsedge); rate 0.2500 kg/ha): 0.0

— patent US20020137929A1, “1 - (3-heterocyclylphenyl) isothiourea, -isourea, -guanidine and -amidine herbicidal agents” (Intellectual Property Department, BASF Aktiengesellschaft, priority 1998, published 2002)
